Laboratory results: PubChem BioAssay (NCI)
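Compound exposure: 48 hours, 5 concentrations, 96-well plates. GI50 = concentration required for 50% inhibition of growth. The concentration for full growth arrest is given as TGI.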

How the values were obtained:
Assay in all cases: inhibition of tumour cell growth, NCI panel, 48 h
[1] = test system: 786-0 renal
[2] = test system: SNB-19 CNS
[3] = test system: RXF 393 renal
[4] = test system: PC-3 prostate
[5] = test system: MDA-MB-435
[6] = test system: HCC-2998 colon
[7] = test system: HCT-116 colon
[8] = test system: SK-MEL-2 melanoma
[9] = test system: UO-31 renal
[10] = test system: MALME-3M melanoma
[11] = test system: NCI-H522 lung
[12] = test system: SK-MEL-5 melanoma
[13] = test system: SW-620 colon
[14] = test system: MDA-MB-231 breast
[15] = test system: TK-10 renal
[16] = test system: COLO 205 colon
[17] = test system: SF-539 CNS
[18] = test system: HS 578T breast
[19] = test system: A549 NSCLC
[20] = test system: A498 renal
[21] = test system: HT29 colon
[22] = test system: T-47D breast
[23] = test system: OVCAR-3 ovarian
[24] = test system: SNB-75 CNS
[25] = test system: SN12C renal
[26] = test system: UACC-62 melanoma
[27] = test system: HOP-62 NSCLC
[28] = test system: SF-295 CNS
[29] = test system: BT-549 breast
[30] = test system: ACHN renal
[31] = test system: IGROV1 ovarian
[32] = test system: OVCAR-4 ovarian
[33] = test system: HOP-92 NSCLC
[34] = test system: NCI-H226 lung
[35] = test system: MCF7 breast
[36] = test system: HCT-15 colon
[37] = test system: CAKI-1 renal
[38] = test system: RPMI-8226 leukemia
[39] = test system: U251 CNS
[40] = test system: EKVX NSCLC
[41] = test system: OVCAR-8 ovarian
[42] = test system: CCRF-CEM leukemia
[43] = test system: M14 melanoma
[44] = test system: SF-268 CNS
[45] = test system: NCI-H460 lung
[46] = test system: KM12 colon
[47] = test system: UACC-257 melanoma
[48] = test system: LOX IMVI melanoma
[49] = test system: DU-145 prostate
[50] = test system: SK-MEL-28 melanoma
[51] = test system: NCI/ADR-RES ovarian
[52] = test system: OVCAR-5 ovarian
[53] = test system: SK-OV-3 ovarian

With COc1cc2nc(-c3ccc(C(F)(F)F)cc3)cc(OCCCNCC3CCCO3)c2cc1OC (stereo unspecified) as the molecule, how does the GI50 [1] read?
The GI50 was 6.44 µM.

And the TGI [1]?
The TGI was 21.1 µM.

And the GI50 [2]?
Its GI50 is 13.3 µM.

What about the TGI [2] of the same molecule?
Its TGI is 28.4 µM.

And the GI50 [3]?
Its GI50 is 1.38 µM.

And the TGI [3]?
Its TGI is 5.23 µM.

What about the GI50 [4] of the same molecule?
Its GI50 is 3.8 µM.

What about the TGI [4] of the same molecule?
Its TGI is 17.2 µM.

What about the GI50 [5] of the same molecule?
Its GI50 is 3.13 µM.

What about the TGI [5] of the same molecule?
The TGI was 11.7 µM.

What about the GI50 [6] of the same molecule?
The GI50 was 10.3 µM.

What about the TGI [6] of the same molecule?
Its TGI is 23.6 µM.

What about the GI50 [7] of the same molecule?
The GI50 was 3.45 µM.

And the TGI [7]?
Its TGI is 14.8 µM.

And the GI50 [8]?
Its GI50 is 13.7 µM.

And the TGI [8]?
The TGI was 26.9 µM.

What about the GI50 [9] of the same molecule?
Its GI50 is 2.53 µM.

And the TGI [9]?
The TGI was 15.6 µM.

And the GI50 [10]?
Its GI50 is 3.17 µM.

And the TGI [10]?
The TGI was 13.8 µM.

And the GI50 [11]?
Its GI50 is 3.05 µM.

What about the TGI [11] of the same molecule?
The TGI was 13.8 µM.

What about the GI50 [12] of the same molecule?
Its GI50 is 11.7 µM.

And the TGI [12]?
Its TGI is 24.7 µM.

And the GI50 [13]?
The GI50 was 8.16 µM.

What about the TGI [13] of the same molecule?
Its TGI is 22 µM.

And the GI50 [14]?
Its GI50 is 3.79 µM.

And the TGI [14]?
The TGI was 17 µM.

And the GI50 [15]?
Its GI50 is 12.2 µM.

And the TGI [15]?
Its TGI is 25.3 µM.

And the GI50 [16]?
Its GI50 is 3.09 µM.

What about the TGI [16] of the same molecule?
The TGI was 17.7 µM.

What about the GI50 [17] of the same molecule?
The GI50 was 11.2 µM.

And the TGI [17]?
Its TGI is 24 µM.

What about the GI50 [18] of the same molecule?
The GI50 was 10.4 µM.

What about the TGI [18] of the same molecule?
The TGI was 25.8 µM.

And the GI50 [19]?
Its GI50 is 4.43 µM.

What about the TGI [19] of the same molecule?
The TGI was 21.2 µM.

What about the GI50 [20] of the same molecule?
The GI50 was 20.6 µM.

And the TGI [20]?
Its TGI is 37 µM.

And the GI50 [21]?
The GI50 was 2.98 µM.

What about the TGI [21] of the same molecule?
Its TGI is 11.2 µM.

What about the GI50 [22] of the same molecule?
Its GI50 is 4.06 µM.

What about the TGI [22] of the same molecule?
The TGI was 19 µM.

What about the GI50 [23] of the same molecule?
The GI50 was 12.3 µM.

And the TGI [23]?
The TGI was 27.5 µM.

And the GI50 [24]?
Its GI50 is 8.45 µM.

And the TGI [24]?
The TGI was 21.9 µM.

And the GI50 [25]?
Its GI50 is 4.63 µM.

What about the TGI [25] of the same molecule?
Its TGI is 18.4 µM.

What about the GI50 [26] of the same molecule?
Its GI50 is 3.54 µM.

And the TGI [26]?
Its TGI is 14.5 µM.

And the GI50 [27]?
Its GI50 is 6.01 µM.

What about the TGI [27] of the same molecule?
The TGI was 21.4 µM.

What about the GI50 [28] of the same molecule?
Its GI50 is 8.68 µM.

What about the TGI [28] of the same molecule?
The TGI was 22 µM.

What about the GI50 [29] of the same molecule?
The GI50 was 6.92 µM.

What about the TGI [29] of the same molecule?
Its TGI is 21.1 µM.

And the GI50 [30]?
The GI50 was 4.89 µM.

What about the TGI [30] of the same molecule?
The TGI was 18.2 µM.

And the GI50 [31]?
Its GI50 is 4.41 µM.

And the TGI [31]?
Its TGI is 18.8 µM.

And the GI50 [32]?
Its GI50 is 9.01 µM.

What about the TGI [32] of the same molecule?
The TGI was 21.5 µM.

What about the GI50 [33] of the same molecule?
Its GI50 is 1.57 µM.

And the TGI [33]?
The TGI was 7.85 µM.

And the GI50 [34]?
Its GI50 is 2.51 µM.

And the TGI [34]?
The TGI was 8.6 µM.

What about the GI50 [35] of the same molecule?
Its GI50 is 3.23 µM.

And the TGI [35]?
The TGI was 15.9 µM.

What about the GI50 [36] of the same molecule?
Its GI50 is 3.1 µM.

And the TGI [36]?
The TGI was 12.3 µM.

What about the GI50 [37] of the same molecule?
Its GI50 is 1.74 µM.

And the TGI [37]?
Its TGI is 5.32 µM.

What about the GI50 [38] of the same molecule?
Its GI50 is 2.39 µM.

And the TGI [38]?
Its TGI is 12.2 µM.

And the GI50 [39]?
Its GI50 is 7.37 µM.

And the TGI [39]?
Its TGI is 26.5 µM.

What about the GI50 [40] of the same molecule?
Its GI50 is 4.22 µM.

What about the TGI [40] of the same molecule?
The TGI was 18.6 µM.

What about the GI50 [41] of the same molecule?
The GI50 was 3.72 µM.

And the TGI [41]?
Its TGI is 16.6 µM.

And the GI50 [42]?
The GI50 was 6.61 µM.

And the TGI [42]?
The TGI was 24.4 µM.

What about the GI50 [43] of the same molecule?
Its GI50 is 3.09 µM.

What about the TGI [43] of the same molecule?
The TGI was 12.4 µM.

What about the GI50 [44] of the same molecule?
Its GI50 is 10.4 µM.

And the TGI [44]?
The TGI was 25 µM.

And the GI50 [45]?
Its GI50 is 3.89 µM.

What about the TGI [45] of the same molecule?
The TGI was 15.8 µM.

And the GI50 [46]?
Its GI50 is 5.49 µM.

What about the TGI [46] of the same molecule?
The TGI was 20.5 µM.

What about the GI50 [47] of the same molecule?
Its GI50 is 2.01 µM.

What about the TGI [47] of the same molecule?
The TGI was 4.79 µM.

And the GI50 [48]?
The GI50 was 1.61 µM.

What about the TGI [48] of the same molecule?
Its TGI is 4.33 µM.

What about the GI50 [49] of the same molecule?
Its GI50 is 9.03 µM.

What about the TGI [49] of the same molecule?
The TGI was 21.7 µM.

And the GI50 [50]?
The GI50 was 5.77 µM.

What about the TGI [50] of the same molecule?
The TGI was 19.3 µM.

And the GI50 [51]?
Its GI50 is 6.92 µM.

And the TGI [51]?
The TGI was 24.5 µM.

What about the GI50 [52] of the same molecule?
Its GI50 is 4.09 µM.

And the TGI [52]?
The TGI was 17.5 µM.

And the GI50 [53]?
The GI50 was 12.4 µM.

And the TGI [53]?
Its TGI is 25.8 µM.
